Reference: the supplement of paper PMC10307832

Columns and labels:
Test in all cases: relative viability (nuclei count vs DMSO), 5 days (fraction); higher = more cells survive
RU-SKI 43 + Palbociclib = compound: CC[C@@H](C)CNCC(=O)N1CCC2=C([C@@H]1COC3=CC=CC(=C3)C)C=CS2 [RU-SKI 43] + CC(=O)c1c(C)c2cnc(Nc3ccc(N4CCNCC4)cn3)nc2n(C2CCCC2)c1=O [Palbociclib] (partner 0.5 µM)
Summary of the method: (§1)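 Values are medians from duplicate plates. Each reflects relative viability, defined as the nuclei count of treated wells over that of vehicle wells. Lung cancer cell lines in 1536-well plates were pin-tool dosed one day after seeding with one drug alone or with a fixed anchor-drug dose plus five library-drug doses (not always all listed) in √10 steps, then fixed, stained and imaged at 4× after 5 days.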

RU-SKI 43 + Pictilisib = compound: CC[C@@H](C)CNCC(=O)N1CCC2=C([C@@H]1COC3=CC=CC(=C3)C)C=CS2 [RU-SKI 43] + CS(=O)(=O)N1CCN(Cc2cc3nc(-c4cccc5[nH]ncc45)nc(N4CCOCC4)c3s2)CC1 [Pictilisib] (partner 1 µM)
Summary of the method: as §1

Irinotecan + Lapatinib = compound: CCc1c2c(nc3ccc(OC(=O)N4CCC(N5CCCCC5)CC4)cc13)-c1cc3c(c(=O)n1C2)COC(=O)[C@]3(O)CC [Irinotecan] + CS(=O)(=O)CCNCc1ccc(-c2ccc3ncnc(Nc4ccc(OCc5cccc(F)c5)c(Cl)c4)c3c2)o1 [Lapatinib] (partner 2 µM)
Summary of the method: as §1

Irinotecan + Olaparib = compound: CCc1c2c(nc3ccc(OC(=O)N4CCC(N5CCCCC5)CC4)cc13)-c1cc3c(c(=O)n1C2)COC(=O)[C@]3(O)CC [Irinotecan] + O=C(c1cc(Cc2n[nH]c(=O)c3ccccc23)ccc1F)N1CCN(C(=O)C2CC2)CC1 [Olaparib] (partner 8 µM)
Summary of the method: as §1

Row | Cell Line | relative viability (RU-SKI 43 + Palbociclib; first compound 0.1 µM) | relative viability (RU-SKI 43 + Palbociclib; first compound 0.3162 µM) | relative viability (RU-SKI 43 + Palbociclib; first compound 1 µM) | relative viability (RU-SKI 43 + Palbociclib; first compound 3.162 µM) | relative viability (RU-SKI 43 + Palbociclib; first compound 10 µM) | relative viability (RU-SKI 43 + Pictilisib; first compound 0.1 µM) | relative viability (RU-SKI 43 + Pictilisib; first compound 0.3162 µM) | relative viability (RU-SKI 43 + Pictilisib; first compound 1 µM) | relative viability (RU-SKI 43 + Pictilisib; first compound 3.162 µM) | relative viability (RU-SKI 43 + Pictilisib; first compound 10 µM) | relative viability (Irinotecan + Lapatinib; first compound 0.6325 µM) | relative viability (Irinotecan + Lapatinib; first compound 2 µM) | relative viability (Irinotecan + Lapatinib; first compound 6.325 µM) | relative viability (Irinotecan + Lapatinib; first compound 20 µM) | relative viability (Irinotecan + Olaparib; first compound 0.6325 µM) | relative viability (Irinotecan + Olaparib; first compound 2 µM) | relative viability (Irinotecan + Olaparib; first compound 6.325 µM) | relative viability (Irinotecan + Olaparib; first compound 20 µM)
1 | NCI-H2023 | 0.383 | 0.385 | 0.444 | 0.451 | 0.311 | 0.269 | 0.213 | 0.236 | 0.264 | 0.212 | 0.484 | 0.408 | 0.129 | 0.045 | 0.302 | 0.225 | 0.14 | 0.073
2 | PC-14 | 0.575 | 0.668 | 0.798 | 0.451 | 0.401 | 0.644 | 0.716 | 0.756 | 0.646 | 0.462 | 0.314 | 0.262 | 0.15 | 0.16 | 0.129 | 0.163 | 0.167 | 0.123
3 | ChaGo-K-1 | 0.919 | 1.05 | 1 | 0.976 | 0.956 | 1.07 | 0.75 | 1.12 | 0.435 | 0.495 | – | – | – | – | 0.223 | 0.267 | 0.245 | 0.221
4 | NCI-H650 | 0.344 | 0.312 | – | 0.338 | 0.337 | 0.947 | 0.793 | 0.829 | – | 0.926 | 0.757 | 0.693 | 0.275 | 0.31 | 0.181 | 0.199 | 0.185 | 0.198
5 | EBC-1 | – | – | – | – | – | 0.345 | 0.283 | 0.429 | 0.316 | 0.196 | 0.219 | 0.172 | 0.21 | 0.15 | 0.228 | 0.224 | 0.257 | 0.188
6 | NCI-H2228 | 0.735 | 1.05 | 0.892 | 0.535 | 0.737 | 0.306 | 0.375 | 0.42 | 0.51 | 0.285 | 0.798 | 0.772 | 0.461 | 0.353 | 0.496 | 0.486 | 0.451 | 0.486
7 | NCI-H1703 | – | – | – | – | – | 0.253 | 0.209 | 0.263 | 0.273 | 0.219 | 0.953 | 1.32 | 0.39 | 0.158 | 0.512 | 0.375 | 0.169 | 0.164
8 | 201T | 0.367 | 0.329 | 0.368 | 0.361 | 0.361 | 0.71 | 0.544 | 0.737 | 0.662 | 0.67 | – | 1.03 | 0.738 | 0.322 | 0.53 | 0.312 | 0.231 | 0.264
9 | NCI-H1915 | 0.51 | 0.543 | 0.559 | 0.541 | 0.525 | 1.02 | 0.954 | 1.03 | 0.961 | 0.927 | 0.434 | 0.373 | 0.147 | 0.15 | 0.151 | 0.186 | 0.144 | 0.115
10 | NCI-H358 | 0.129 | 0.152 | 0.15 | 0.128 | 0.128 | 0.291 | 0.315 | 0.332 | 0.336 | 0.286 | 0.406 | 0.47 | 0.327 | 0.21 | 0.215 | 0.286 | 0.158 | 0.109
